Legend:
[1] = Incubation with rat liver slices (metabolism); assay type: in vitro ADME; conditions: four hours
Excerpt: Ethyl acetate extraction gave a recovery of ~70% of the tritiated material, while ~25% (~9 HPLC peaks) remained in the aqueous residue.

[2] = target: T1, recombinant HIV reverse transcriptase (HIV RTR) (Human immunodeficiency virus type 1 group M subtype B, UniProt P04585); experiment: Reverse transcriptase assay (incorporation of tritiated dGMP into acid-precipitable cDNA); assay type: biochemical; conditions: [dGTP] and poly r(C).oligo d(G)12-18 at approx. Km; 37° C., 45 minutes; read-out: calculated IC50
T1 construct: recombinant HIV reverse transcriptase (HIV RTR)
Description: The assay measures the incorporation of tritiated deoxyguanosine monophosphate by recombinant HIV reverse transcriptase (HIV RTR) (or other RT) into acid-precipitable cDNA at the Km values of dGTP and poly r(C).oligo d(G)12-18.
Thirty uL of a reaction mixture containing equal volumes of: 500 mM Tris.HCl (pH 8.2), 300 mM MgCl2, 1200 mM KCl, 10 mM DTT, 400 μg/mL poly r(c).oligo d(G) [prepared by dissolving 1.5 mg (25 U) poly r(C).oligo d(G) in 1.5 ml sterile distilled H2 O and diluting to 400 μg/ml], 0.1 μCi/μl [^3 H] dGTP, 160 μM dGTP, were added to 10 μl sterile distilled H2 O, and 2.5 μl of potential inhibitor. An aliquot of 10 μL of 5 nM purified HIV RTR was added to initiate the reaction. The mixture was incubated at 37° C. for 45 minutes.
After incubation is complete, the tubes were cooled in ice for 5 minutes. Ice-cold 13% TCA containing 10 mM NaPPi (200 μl) are added and the mixture incubated on ice for 30 minutes. The precipitated cDNA is removed by filtration using presoaked glass filters [TCA, NaPPi ]. The precipitate is then washed with 1N HCl, 10 mM NaPPi.
The filter discs are then counted in a scintillation counter.
Under these conditions [dGTP] and poly r(C).oligo d(G)12-18 each are approximately equal to the appropriate Km value. Approximately 5-6,000 cpm of [^3 H] GMP are incorporated into acid-precipitable material. The RT reaction is concentration- and time-dependent.

| Compound | radioactive HPLC peak, % of the total metabolites ([1]; ethyl acetate extract of the rat liver slice incubation of the parent compound) [%] | IC50 [2] [nM] | metabolised at 4 h ([1]; tritiated compound 14.18 μmol, rat liver slices 6.1 g, Williams Medium E, pH 7.4, 37° C.) [%] |
| --- | --- | --- | --- |
| CCc1cc(CCc2nc3ccccc3o2)c(=O)[nH]c1CO [compound (I), 3-[2-(benzoxazol-2-yl)ethyl]-5-ethyl-6-hydroxymethyl-2 (1H)-pyridinone] | 6 | ~44 |  |
| CCc1cc(CCc2nc3ccccc3o2)c(O)nc1C [compound (II), 3-[2-(Benzoxazol-2-yl)ethyl]-5-ethyl-6-methyl-2-(1H)-pyridinone] |  |  | ~32 |

Source: patent publication US5202243A, “Method of hydroxylating 3-[2-(benzoxazol-2-yl)ethyl]-5-ethyl-6-methyl-2-(1H)-pyridinone by incubation with liver slices” (Merck & Co., Inc., priority 1992, dated 1993)
